Columns and labels:
SLC34A2 [1] = target: T1, SLC34A2 (Homo sapiens, UniProt O95436); test: Immunofluorescent labeling of frozen sections of xenografts with MX35; type: binding; conditions: control grafts generated with A4 cells
T1 construct: from tissue; host or cells: Xenografts of human FSHD myoblasts (C6, 15A; controls A4, 15V) in the tibialis anterior of NRG mice
T1 sequence (O95436 1-689 isoform O95436-2 D633G): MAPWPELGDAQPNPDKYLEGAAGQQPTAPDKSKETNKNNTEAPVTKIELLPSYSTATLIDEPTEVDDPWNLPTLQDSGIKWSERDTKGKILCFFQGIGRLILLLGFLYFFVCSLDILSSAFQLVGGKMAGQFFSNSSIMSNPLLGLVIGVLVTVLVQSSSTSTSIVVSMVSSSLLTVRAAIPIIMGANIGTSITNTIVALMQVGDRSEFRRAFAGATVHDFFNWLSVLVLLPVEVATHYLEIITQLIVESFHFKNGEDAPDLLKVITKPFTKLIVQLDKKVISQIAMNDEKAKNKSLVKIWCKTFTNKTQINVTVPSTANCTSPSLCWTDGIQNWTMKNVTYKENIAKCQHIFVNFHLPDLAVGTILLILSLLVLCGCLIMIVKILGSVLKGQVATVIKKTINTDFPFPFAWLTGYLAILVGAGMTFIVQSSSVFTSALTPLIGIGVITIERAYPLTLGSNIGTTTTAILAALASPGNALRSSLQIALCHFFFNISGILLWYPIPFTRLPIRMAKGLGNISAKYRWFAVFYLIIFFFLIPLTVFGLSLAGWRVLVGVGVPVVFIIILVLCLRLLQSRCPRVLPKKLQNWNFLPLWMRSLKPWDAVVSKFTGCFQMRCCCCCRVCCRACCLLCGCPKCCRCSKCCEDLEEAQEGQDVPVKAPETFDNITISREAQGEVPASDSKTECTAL
Text: (§1) Antibodies: MX35 is a mouse mAb from the Sloan-Kettering Research Institute. Biotinylation and conjugation of MX35 or its Fab fragments, to Alexa fluorophores from InVitrogen/ThermoFisher, will follow manufacturer's instructions. Rabbit mAbs to the N- and C-terminal regions of SLC34A2 (Cell Signaling) are used at 1:100 dilutions. Fluorescent secondary antibodies and streptavidin are available commercially.
(§2) Immunofluorescence: Mice will be euthanized and blood samples taken. Muscles will be collected and either snap frozen or processed for PCR or immunoblotting. Frozen muscles will be-sectioned on a cryostat and labeled for biotinylated MX35 with fluorescent streptavidin or antibodies to biotin. Double labeling with rabbit anti-SLC34A2 antibodies will be performed to confirm the identity of positive fibers. Additional labeling with human-specific antibodies (e.g., to β-spectrin, lamin followed by isoform-specific secondary antibodies will be used to confirm the identify of fibers of human origin in the xenografts, as: necessary.
(§3) Results: We used immortalized C6 myoblasts (14) to generate xenografts in the Tibialis anterior muscles of NRG mice. Cross sections of the graft show similar immunofluorescent labeling by MX35 and a rabbit Ab to the C-terminus of SLC34A2 (FIG. 6). […]

SLC34A2 [2] = target: T2, SLC34A2 (Homo sapiens, UniProt O95436, D634G); test: as above; type: binding; conditions: FSHD (C6) xenografts in Tibialis anterior of NRG mice
T2 construct: from tissue; host or cells: Xenografts of human FSHD myoblasts (C6, 15A; controls A4, 15V) in the tibialis anterior of NRG mice
T2 sequence (O95436 1-689 isoform O95436-2 D633G): T1 sequence (O95436 1-689 isoform O95436-2 D633G)
Text: as §1, §2, §3

SLC34A2 [3] = target: T2, SLC34A2; test: Immunoprecipitation of SLC34A2 from extracts of FSHD muscle cells in culture; type: binding
Text: FIG. 13. Immunoblots of FSHD and control myotubes with antibodies to the C- and N-termini of SLC34A2 (A) and after immunoprecipitation with MX35 (B), followed by blotting.

SLC34A2 [4] = target: T2, SLC34A2; test: Immunolabeling of living FSHD (C6) and control (A4) myotubes; type: binding; conditions: FSHD (C6) vs control (A4) myotubes
Text: FIG. 14. Immunolabeling of living FSHD (C6) and control (A4) myotubes with MX35 and control IgG. DAPI was used as a counterstain (blue). Bound MX35 and control IgG were recognized with Alexa-568 labeled goat anti-mouse IgG (red).

[5] = target: T3, SLC34A2 in FSHD xenografts (Homo sapiens, UniProt O95436); test: IVIS imaging of living mice carrying xenografts after injection of fluorescent antibody; type: in vivo, mouse; conditions: living mice (IVIS) and frozen sections
T3 construct: from tissue; host or cells: Xenografts of human FSHD myoblasts (C6, 15A; controls A4, 15V) in the tibialis anterior of NRG mice
T3 sequence (O95436 1-689 isoform O95436-2 D633G): T1 sequence (O95436 1-689 isoform O95436-2 D633G)
Text: (ii): Given the level of variability we observe in our xenografts, and the small numbers of FSHD myofibers in the grafts generated by some of the FSHD cell lines we have been studying, we thought it important to be able to monitor the diseased myofibers in living mice. Our approach is to inject mice with an infrared fluorescent version of a monoclonal antibody to SLC34A2, MX-35, that recognizes an extracellular epitope of the protein and that has been used clinically with patients with ovarian cancer. This approach should allow us to estimate the lifetime of the fibers once they become positive for SLC34A2, and, using different IR fluorophores, what the rate of appearance of newly positive fibers is in our grafts. It could also be used to test potential treatments for FSHD both in mice and in clinical trials with FSHD patients.
Injection and Imaging: Mice will be injected IV with fluorescent mAb or Fab fragments either through the tail vein or retroorbitally, with 150 μg of the biotinylated antibodyfluorophore conjugate in […]. Imaging in a Xenogen IVIS Spectrum Optical In Vivo imaging System (Perkin Elmer), will begin 2 hr later, repeated daily for 3 days, and at longer intervals thereafter. Repeated injections will also be done at regular intervals, to be determined, based on the levels of the antibody-conjugate remaining in circulation.

SLC34A2 [6] = conditions: epithelia and cancers; cited from earlier work
[7] = tested on: DUX4 target genes (MBD3L2, LEUTX, SLC34A2); test: qPCR of DUX4 target gene mRNAs in FSHD xenografts of treated mice; type: in vivo, mouse
Description: Xenografts are treated starting at 5 weeks after initial engraftment. Dosage is 10 mg/kg BID, injected IP.

[8] = tested on: SLC34A2 protein in C6 (FSHD) myotubes; test: Immunoblot of SLC34A2 protein in cultured FSHD myotubes treated with p38 kinase inhibitors; type: cell-based, human; conditions: for expression of the SLC34A2 protein: cultured C6 (FSHD) myotubes
Text: (i): We have adapted and improved our procedures to assay for SLC34A2 mRNA and protein in myotubes of immortalized myoblasts derived from FSHD and healthy individuals. To establish the validity of our assays, we use losmapimod and other p38 kinase inhibitors.

[9] = tested on: SLC34A2 protein at the surface of FSHD myotubes; test: Surface labeling of SLC34A2 protein on FSHD myotubes with and without losmapimod; type: cell-based, human
Text: FIG. 20. Labeling of SLC34A2 protein at the surface of FSHD myotubes, with and without treatment with losmapimod. […] FIG. 21. Relative intensities of surface labeling of SLC34A2 in FSHD myotubes with and without losmapimod treatment, as in FIG. 20, normalized to the desmin signal in each ROI. *, p<0.05.

[10] = tested on: DUX4, SLC34A2 and other downstream gene products of DUX4; test: Relative mRNA expression of DUX4 and downstream genes in FSHD myotubes with and without losmapimod; type: cell-based, human
Text: FIG. 22. Relative mRNA expression of DUX4, SLC34A2, and other downstream gene products of DUX4, in the presence and absence of losmapimod. *, p<0.05, **, p<0.01.

SLC34A2 [11] = conditions: cited from earlier work
[12] = 10 mg/kg BID IP from 5 weeks after engraftment

In the case of MX35, the “labeling of control graft sections” value (SLC34A2 [1]) was “no labeling”, the “recognition of SLC34A2 in xenograft sections” value (SLC34A2 [2]) was “recognizes SLC34A2 in mature FSHD skeletal muscle” and the “immunoprecipitation of SLC34A2” value (SLC34A2 [3]) was “can immunoprecipitated SLC34A2”. The “labeling of the surface of living myotubes” value (SLC34A2 [4]) was “specifically labels the surface of intact living FSHD myotubes, but not control, healthy myotubes”, the “detection of antibody-tagged fibers in grafts” value [5] was “can be detected in FSHD but not control grafts” and the “binding to SLC34A2” value (SLC34A2 [6]) was “bind SLC34A2 present in epithelia and cancers”.
For CC(C)(C)Cn1c(N)nc2ccc(-c3[nH]c(C(C)(C)C)nc3-c3ccc(F)cc3)nc21 [LY222820, ralimetinib], the “expression of the mRNAs encoding DUX4 target genes, including SLC34A2” value [7] was “reduces expression”, the “LEUTX reduction in expression” value [7, 12] was 60-70% and the “MBD3L2 reduction in expression” value [7, 12] was 60-70%. For the same compound, the “SLC34A2 reduction in expression” value [7, 12] was 41% and the “expression of the SLC34A2 protein” value [8] was “Decreased expression”.
For Cc1c(F)cc(C(=O)NC2CC2)cc1-c1ccc(C(=O)NCC(C)(C)C)cn1 [losmapimod], the “expression of the SLC34A2 protein” value [8] was “Decreased expression”, the SLC34A2 protein level ([8]; cultured FSHD myotubes, immunoblots) was −2 fold and the “surface labeling signal of SLC34A2 protein” value [9] was “reduces this signal significantly”. For the same compound, the “mRNAs encoding DUX4, SLC34A2 and other gene products downstream of DUX4” value [10] was “reduces the mRNAs encoding DUX4 and SLC34A2” and the “expression of SLC34A2” value (SLC34A2 [11]) was “reduces the expression of SLC34A2”.
